Data: publication PMC11273453, “Pentaphosphorylation via the Anhydride of Dihydrogen Pentametaphosphate: Access to Nucleoside Hexa- and Heptaphosphates and Study of Their Interaction with Ribonuclease A” (ACS Central Science, 2024)

What was measured:
Ribonuclease A (RNase A) [1] = molecular target: T1, Ribonuclease A (RNase A) (Bos taurus, UniProt P61823); assay: direct […]{1H} NMR titration (binding constant Ka); settings: read-out: direct 31P{1H} NMR titration (binding constant Ka) (converted)
T1 construct: gene RNASE1
T1 sequence (P61823 27-150): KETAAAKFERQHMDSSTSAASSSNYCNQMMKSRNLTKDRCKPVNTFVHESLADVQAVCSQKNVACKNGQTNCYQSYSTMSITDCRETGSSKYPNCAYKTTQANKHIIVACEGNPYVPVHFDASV

Ribonuclease A (RNase A) [2] = molecular target: T1, Ribonuclease A (RNase A); assay: […]{1H} NMR competition titration with RNase A·p3A (binding constant Ka); settings: read-out: 31P{1H} NMR competition titration with RNase A.p3A (binding constant Ka) (converted)
Ribonuclease A (RNase A) [3] = molecular target: T1, Ribonuclease A (RNase A); assay: X-ray cocrystal structure; RNase A inhibition assay (Ki); format: biochemical
Ribonuclease A (RNase A) [4] = molecular target: T1, Ribonuclease A (RNase A); assay: X-ray cocrystal structure (soaking); FRET inhibition assay (Ki); […] NMR titration; format: biochemical

| SMILES | Ki (Ribonuclease A (RNase A) [3]) [nM] | Ki (Ribonuclease A (RNase A) [4]) [nM] | also measured |
| --- | --- | --- | --- |
| O=P1(O)OP(=O)(O)OP(=O)(O)OP(=O)(O)O1 [cP4i, tetrametaphosphate] |  |  | Kd (Ribonuclease A (RNase A) [1]): 23500 nM |
| O=c1ccn([C@@H]2O[C@H](COP(=O)(O)OP(=O)(O)OP(=O)(O)OP(=O)(O)OP(=O)(O)O)[C@@H](O)[C@H]2O)c(=O)[nH]1 [p5U] |  |  | Kd (Ribonuclease A (RNase A) [2]): 53.8 nM |
| Nc1ncnc2c1ncn2[C@@H]1O[C@H](COP(=O)(O)OP(=O)(O)OP(=O)(O)OP(=O)(O)OP(=O)(O)OP(=O)(O)O)[C@@H](O)[C@H]1O [p6A] | 3600 ± 600 |  |  |

Now from value to compound, other results behind:

| Ki (Ribonuclease A (RNase A) [3]) [nM] | Ki (Ribonuclease A (RNase A) [4]) [nM] | SMILES | also measured |
| --- | --- | --- | --- |
|  | 1100 ± 200 | O=c1ccn([C@@H]2O[C@H](COP(=O)(O)OP(=O)(O)OP(=O)(O)OP(=O)(O)OP(=O)(O)OP(=O)(O)O)[C@@H](O)[C@H]2O)c(=O)[nH]1 [p6U] |  |
| 2600 ± 400 |  | Nc1ncnc2c1ncn2[C@@H]1O[C@H](COP(=O)(O)OP(=O)(O)OP(=O)(O)OP(=O)(O)OP(=O)(O)OP(=O)(O)OP(=O)(O)O)[C@@H](O)[C@H]1O [p7A] |  |
|  | 1000 ± 200 | O=c1ccn([C@H]2O[C@@H](COP(=O)(O)OP(=O)(O)OP(=O)(O)OP(=O)(O)OP(=O)(O)OP(=O)(O)OP(=O)(O)O)[C@@H](O)[C@H]2O)c(=O)[nH]1 [p7U] |  |
